Measurements published in paper PMC8698759, “Gold(I) Complexes Bearing Alkylated 1,3,5-Triaza-7-phosphaadamantane Ligands as Thermoresponsive Anticancer Agents in Human Colon Cells” (Biomedicines, 2021).
Like-named read-outs stand apart in the source and are kept apart here.

How the values were obtained:
[1] = Distribution coefficient (logD7.4), shake-flask n-octanol/buffered water; format: physicochemical; details: n-octanol/phosphate buffered saline pH 7.4, shake-flask
Method: The n-octanol-water coefficients of the phosphane derivatives were determined as previously reported using a shake-flask method. Briefly: Buffered-saline distilled water (100 mL, phosphate buffer [PO4^3−] = 10 mM, [NaCl] = 0.15 M, pH 7.4) and n-octanol (100 mL) were shaken together for 72 h to allow saturation of both phases. 1 mg of the complexes was dissolved in 5 mL of the aqueous phase and 5 mL of the organic phase were added, mixing for 10 min. The concentration of the complexes in the organic and aqueous phases were then determined using UV absorbance spectroscopy. LogD7.4 = log{[compound(organic phase)]/[compound(aqueous phase)]}.
The lipophilicity can be measured by the partition coefficient water/n-octanol, logD, by experimental procedures such as the shake flask method, which affords the distribution of the drug between an equal amount of n-octanol and water (or buffered aqueous solution).

[2] = system: Caco-2/TC7 cells; assay: MTT cytotoxicity / antiproliferative assay on Caco-2/TC7 cells; format: cell-based, human
Method: Human fibroblast cells were kindly provided by Dr. Julio Montoya (Unidad de Bioquímica, Facultad de Veterinaria, Universidad de Zaragoza, Spain). Caco-2 cells (passages 40–70) and fibroblasts (passages 10–30) were maintained in a humidified atmosphere of 5% CO2 at 37 °C. Cells were grown in Dulbecco’s Modified Eagles medium (DMEM) (Gibco Invitrogen, Paisley, UK) supplemented with 20% fetal bovine serum (FBS), 1% non-essential amino acids, 1% penicillin (1000 U/mL), 1% streptomycin (1000 μg/mL) and 1% amphotericin (250 U/mL). […] Caco-2 cells were sub-cultured on 25 cm^2 plastic flasks at a density of 1.2 × 10^4 cells/cm^2, while fibroblasts were sub-cultured on 75 cm^2 plastic flasks at a density of 1 × 10^4 cells/cm^2. Culture medium was replaced every 2 days.
(§1) Gold complex was diluted in dimethyl sulfoxide (DMSO) to a stock solution at 20 mM and then re-diluted to a working solution at 2.5 mM before diluting it in cell culture medium to treat cells at desired concentrations.
The influence of hyperthermia was studied by incubating cells at 40 °C for 1 h immediately after treating them with the gold complexes.
For cytotoxicity screening assays, Caco-2 cells were seeded in 96-well plates at a density of 4 × 10^3 cells/well. Culture medium was replaced with medium containing drug panel 24 h post-seeding and cells were incubated for 72 h. In fibroblasts, culture medium containing metal gold complexes was added 10 days post-seeding. Antiproliferative effect was measured with MTT assay as previously described by Mármol et al.. […] To determine the selectivity index (SI) the IC50 value in fibroblasts was divided by IC50 value in Caco-2, obtaining a ratio cancerous/normal cells toxicity.

[3] = system: Human fibroblast cells; assay: MTT cytotoxicity assay on fibroblasts; format: cell-based; details: for fibroblasts viability when treated at the IC50 value in Caco-2: 3a 2.5 µM, 3b 5.1 µM, 2a 12.3 µM, 2b 10.5 µM; for IC50: MTT, mean ± SE
Method: Human Caco-2 cell line (TC7 clone) was kindly provided by Dr. Edith Brot-Laroche (Université Pierre et Marie Curie-Paris 6, UMR S 872, Les Cordeliers, France). Human fibroblast cells were kindly provided by Dr. Julio Montoya (Unidad de Bioquímica, Facultad de Veterinaria, Universidad de Zaragoza, Spain). Caco-2 cells (passages 40–70) and fibroblasts (passages 10–30) were maintained in a humidified atmosphere of 5% CO2 at 37 °C. Cells were grown in Dulbecco’s Modified Eagles medium (DMEM) (Gibco Invitrogen, Paisley, UK) supplemented with 20% fetal bovine serum (FBS), 1% non-essential amino acids, 1% penicillin (1000 U/mL), 1% streptomycin (1000 μg/mL) and 1% amphotericin (250 U/mL). The cells were passaged enzymatically with 0.25% trypsin-1 mM EDTA. Caco-2 cells were sub-cultured on 25 cm^2 plastic flasks at a density of 1.2 × 10^4 cells/cm^2, while fibroblasts were sub-cultured on 75 cm^2 plastic flasks at a density of 1 × 10^4 cells/cm^2. Culture medium was replaced every 2 days.
as §1
For cytotoxicity screening assays, Caco-2 cells were seeded in 96-well plates at a density of 4 × 10^3 cells/well. Culture medium was replaced with medium containing drug panel 24 h post-seeding and cells were incubated for 72 h. In fibroblasts, culture medium containing metal gold complexes was added 10 days post-seeding. Antiproliferative effect was measured with MTT assay as previously described by Mármol et al.. Absorbance at 540/620 nm was measured with SPECTROstar Nano (BMG Labtech). To determine the selectivity index (SI) the IC50 value in fibroblasts was divided by IC50 value in Caco-2, obtaining a ratio cancerous/normal cells toxicity.

[4] = biological target: T1, Recombinant Human TrxR1 (Homo sapiens, UniProt Q16881); assay: Thioredoxin reductase 1 (TrxR1) activity assay; format: biochemical; details: auranofin 25 µM; 3a and 3b at IC50 concentrations
T1 construct: purchased Sigma-Aldrich SRP6081
T1 sequence (Q16881 151-649 limits assumed): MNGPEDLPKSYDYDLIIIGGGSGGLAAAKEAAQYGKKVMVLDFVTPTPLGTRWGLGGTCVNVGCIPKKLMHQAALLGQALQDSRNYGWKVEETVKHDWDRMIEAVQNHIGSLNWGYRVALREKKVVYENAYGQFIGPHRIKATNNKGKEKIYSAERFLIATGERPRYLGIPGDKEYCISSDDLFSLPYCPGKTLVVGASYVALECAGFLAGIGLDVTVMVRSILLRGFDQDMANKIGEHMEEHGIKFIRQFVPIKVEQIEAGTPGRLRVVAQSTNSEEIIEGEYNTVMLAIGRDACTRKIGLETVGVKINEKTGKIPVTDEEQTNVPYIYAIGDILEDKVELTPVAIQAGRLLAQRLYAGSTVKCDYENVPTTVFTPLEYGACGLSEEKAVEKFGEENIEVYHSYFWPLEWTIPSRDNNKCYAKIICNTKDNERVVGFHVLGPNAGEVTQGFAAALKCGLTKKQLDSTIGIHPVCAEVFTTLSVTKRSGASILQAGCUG
Method: Recombinant Human TrxR1 (Sigma-Aldrich SRP6081, St. Louis, MO, USA) was incubated in a 96 well plate with different concentration of Au complex previously dissolved in 25 μL of PBS at pH 7.4. The cell solution was incubated in shake motion for 5 min at 37 °C. After incubation time, procedure in Thioredoxin Reductase Assay Kit (Sigma-Aldrich CS0170, St. Louis, MO, USA) was followed. Finally, reaction was started by adding 6 μL DNTB and absorbance at 405 nm was recorded every 30 s for 22 min as a measure of Thioredoxin Reductase Activity.

[5] = 72 h, MTT, 37 °C, mean ± SE, read-out: IC50 Caco-2/TC7 37 °C
[6] = read-out: IC50 Caco-2/TC7 40 °C, 72 h, MTT, 1 h at 40 °C immediately after treatment (hyperthermia), mean ± SE
[7] = Homo sapiens, Caco2/TC7, read-out: IC50 Caco-2/TC7 40 °C

Row | SMILES | logD7.4 [1] | IC50 [2, 5] | IC50 [2, 6] | fibroblasts viability when treated at the IC50 value in Caco-2 [3] | Selectivity Index (SI) ([3]; IC50 fibroblasts/IC50 Caco-2) | IC50 [3] | IC50 [2] | IC50 [2, 7] | TrxR1 activity related to control [4]
1 | FC(F)(F)C(F)(F)C(F)(F)C(F)(F)C(F)(F)C(F)(F)CC[N+]12CN3CN(C1)C[PH]([Au][Cl])(C3)C2.O=S(=O)([O-])C(F)(F)F [Complex 1b, [AuCl(PTA-CH2CH2(CF2)5CF3)]TfO] | 0.63 | 5.98 ± 1.8 µM | 4.46 ± 0.79 µM | – | – | – | – | – | –
2 | CCCCCCCC[N+]12CN3CN(C1)C[P+]([Au-2]([Cl])[P+]14CN5CN(C[N+](CCCCCCCC)(C5)C1)C4)(C3)C2.[I-].[I-] [Complex 2a, [AuCl(PTA-CH2(CH2)6CH3)2]I2] | −0.12 | 12.3 ± 1.18 µM | 10.4 ± 0.51 µM | nearly two-fold reduction in the viability of fibroblasts | 1.09 | 13.5 ± 0.97 µM | – | – | –
3 | FC(F)(F)C(F)(F)C(F)(F)C(F)(F)C(F)(F)C(F)(F)CC[N+]12CN3CN(C1)C[P+]([Au-2]([Cl])[P+]14CN5CN(C[N+](CCC(F)(F)C(F)(F)C(F)(F)C(F)(F)C(F)(F)C(F)(F)F)(C5)C1)C4)(C3)C2.O=S(=O)([O-])C(F)(F)F.O=S(=O)([O-])C(F)(F)F [Complex 2b, [AuCl(PTA-CH2CH2(CF2)5CF3)2](TfO)2] | 0.82 | 10.7 ± 0.6 µM | 9 ± 0.39 µM | nearly two-fold reduction in the viability of fibroblasts | – | 11.6 ± 1.05 µM | – | – | –
4 | CCCCCCCC[N+]12CN3CN(CP(C3)C1)C2 [La, [PTA-CH2(CH2)6CH3]I] | – | – | – | – | – | – | 49.32 ± 0.02 µM | 47.1 ± 0.92 µM | –
5 | FC(F)(F)C(F)(F)C(F)(F)C(F)(F)C(F)(F)C(F)(F)CC[N+]12CN3CN(CP(C3)C1)C2 [Lb, [PTA-CH2CH2(CF2)5CF3]TfO] | – | – | – | – | – | – | 27.2 ± 7.56 µM | 24 ± 6.6 µM | –
6 | CC(=O)OC[C@H]1O[C@@H]([S-])[C@H](OC(C)=O)[C@@H](OC(C)=O)[C@@H]1OC(C)=O.CCP(CC)CC.[Au+] [auranofin, reference compound] | – | – | – | – | – | – | – | – | Inhibitory effect
